Experiments:
individual live cell = settings: hydrogen peroxide stimulus, FIG. 27
Method: Measurement of intracellular ROS in live cells—The measurement of intracellular reactive oxygen species (ROS) levels was performed using the DHR123 (1-10 μM), DCFDA(1 μM) or DHE (2 μM) probes.
For probe loading, 100 μl of cells at a concentration of 1.52×10^6 cells/mL in PBS or in serum free media without phenol red were incubated in the presence of the various probes for 15 min at 37° C. and 5% CO2, and then washed twice in PBS and thereafter exposed to either LPC (10-20 μM), MTX (50 nM) or H2O2 (10-500 μM).

U937 cells [1] = assay: Specificity of ROS probe DCFH-DA towards hydrogen peroxide and NO donor in labeled cells; format: cell-based; settings: FIGS. 22a-b
Method: The pro-monocyte U937 cell line was used as cell culture model. Hydrogen peroxide was used as a source of ROS. Probe loading of cells was measured in bulk and at individual cell level. Probe concentration, loading time and cell washing were determined for the different ROS probes. The kinetics of ROS generation was measured in real time by monitoring sequentially the same individual cells. Photo toxicity induced by repeated excitations was checked. FIGS. 12-17, 18-19 and 20-21a-b show the ability of dihydrorhodamine 123 (DHR), dichlorodihydrofluorescein diacetate (DCFH-DA) and dihydroethidium (DHE), respectively, to detect ROS formation in U937 cells treated with hydrogen peroxide.
(§1) The specificity of DCFH-DA and DAF-2DA towards ROS and […] respectively, was tested.

U937 cells [2] = assay: Intracellular NO measurement with DAF-2DA probe in labeled cells; format: cell-based; settings: for signal of cells labeled with DAF-2DA (NO probe): FIGS. 22a-b
Method: Fluorescent microscopy and imaging system—Olympus motorized upright epi-fluorescence BX51 microscope, equipped with motorized polarization filters for fluorescence polarization measurements was used. Cells were illuminated by a Mercury light source. The emitted fluorescence was imaged by CoolSNAP HQ monochrome CCD camera, or DVC-1312 (DVC Company, West Austin, Tex., USA) color camera. Digital image analysis of cellular fluorescence was performed by Image Pro plus software (Media Cybernetics. Inc. Silver Spring, Md.,USA).
Quantitative measurements of intracellular NO concentration in individual U937 cells were effected in response to incubation in the presence of the Diethylene triamine NONOate ([…]) donor (0.1-1 mM). The loading of cells with probe was measured in bulk at the individual cell level. Probe concentration loading time and cell washing were determined. The kinetic of NO generation was measured in real time by sequentially monitoring the same individual cells. Photo-toxicity induced by repeated excitations was checked and subtracted. Time response of NO generation in the presence or absence of DETA/NO donor (0.5 mM) in U937 cells labeled with DAF-2DA (10 μM, 15 min) is shown in FIG. 3. […] Quantitative measurements of intracellular NO levels in individual living cells labeled with DAF-2DA and treated with DETA/NO are shown in FIGS. 7a-b and 8a-b.
as §1

In the case of `OO` [hydrogen peroxide], the “temporal relationship between ROS generation (DHR) and onset of changes in mitochondrial membrane potential (TMRM)” value (individual live cell) is reported as “Hyperpolarization of mitochondrial membrane potential preceded the increase in ROS level”, the “signal of cells labeled with DCFH-DA (ROS probe)” value (U937 cells [1]) is reported as “strong and quantifiable signal” and the “signal of cells labeled with DAF-2DA (NO probe)” value (U937 cells [2]) is reported as “background signal”.
For `NCCN(CCN)/[N+]([O-])=N/O` [DETA/NO, Diethylene triamine NONOate], the “signal of cells labeled with DCFH-DA (ROS probe)” value (U937 cells [1]) was “only a minor response”, the “intracellular NO generation in U937 cells in response to donor” value (U937 cells [2]; U937 cells labeled with DAF-2DA (10 μM, 15 min), donor 0.1-1 mM) was “accumulate NO” and the “signal of cells labeled with DAF-2DA (NO probe)” value (U937 cells [2]) was “strong signal”.
